Experimental data: patent US20210315799A1, “Composition for Promoting Differentiation or Proliferation of Human Adipose-Derived Stem Cell” (LG Household & Health Care Ltd., priority 2018, published 2021)

How the values were obtained:
Type in all cases: cell-based
[1] = system: human adipose-derived stem cells; experiment: Quantified differentiation: eluted Oil Red O, absorbance at 490 nm (Example 3); settings: Oil Red O eluted with isopropanol, absorbance 490 nm; compared with negative control (differentiation medium only); FIG. 2
Method: (§1) Human adipose-derived stem cells were purchased from Lonza, Inc. (Walkersvile, Md., USA) and cultured according to guidelines of Lonza, Inc. Differentiation into adipose cells was evaluated using a differentiation medium recommended by Lonza, Inc. As a positive control, the cells were treated with 1 μM rosiglitazone together with the differentiation medium. In order to induce differentiation of human adipose-derived stem cells into adipose cells, a cell culture solution was removed at 3 to 5 days after cell culturing was initiated, and the cells were treated with formononetin, acetyl mandelic acid, Magnoliae cortex extract, and the positive control for 14 days.
(§2) At 14 days after differentiation was initiated, the cell culture solution was removed, and the cells were washed with a phosphate buffer (DPBS) and immobilized using 10% formalin. The immobilized cells were observed using a microscope after staining fats and lipids contained in the adipose cells with Oil Red 0.
Cultured human adipose-derived stem cells were treated with 12 types of the compounds including formononetin and a Magnoliae cortex extract and an Aloe vera extract in the same manner as in Example 2. Stained Oil Red 0 was eluted using a 100% isopropanol solution, and absorbance thereof was measured at a wavelength of 490 nm and quantified. […] It was confirmed that the substances according to the present invention promoted differentiation of human adipose-derived stem cells into adipose cells and effectively promoted differentiation into adipose cells compared to non-differentiation substances such as kaempferol. Thus, the compositions including the substances according to the present invention may be used for anti-aging purposes to enhance skin elasticity and reduce skin wrinkles by promoting differentiation of human adipose-derived stem cells and increasing the number of subcutaneous fat cells.

[2] = system: human adipose-derived stem cells; experiment: Oil Red O staining of differentiated adipose cells, observed by microscope (Example 2); settings: treated 14 days; compared with negative control treated only with differentiation medium; FIG. 1
Method: as §1, §2

[3] = system: human adipose-derived stem cells; experiment: Cell activity / proliferation by CCK-8 kit (Example 6); settings: for cell activity rates / proliferation of human adipose-derived stem cells compared to a control: FIG. 6; for concentration at which the substance showed the highest cell activity: tested at 0.2 ppm, 2 ppm and 20 ppm
Method: Human adipose-derived stem cells were purchased from Lonza, Inc. (Walkersville, Md., USA) and incubated in a CO2 incubator at 37° C. under 5% CO2 conditions. After the human adipose-derived stem cells were treated with 0.2 ppm, 2 ppm, and 20 ppm, respectively, cell activities thereof were identified using a CCK-8 kit (Dojindo).

Compound | relative differentiation rate of human adipose-derived stem cells into adipose cells [1] | effects on differentiation of human adipose-derived stem cells into adipose cells (Oil Red O staining) [2] | cell activity rates / proliferation of human adipose-derived stem cells compared to a control [3] | concentration at which the substance showed the highest cell activity [3] [ppm]
CC(=O)OC(C(=O)O)c1ccccc1 (stereo not shown) [acetyl mandelic acid, O-acetyl mandelic acid] | effectively promote differentiation | superior to those of the negative control |  | 
CC1=C[C@H](O)CC(C)(C)[C@H]1/C=C/C(C)=C/C=C/C(C)=C/C=C/C=C(C)/C=C/C=C(C)/C=C/C1=C(C)C[C@@H](O)CC1(C)C [xanthophyll, lutein] | effectively promote differentiation |  | significantly increased | 20
O=c1cccccc1O [tropolone] |  |  | significantly increased | 2
CC(C)c1cc2c(c(O)c1O)[C@@]1(C(=O)O)CCCC(C)(C)[C@@H]1CC2 [carnosic acid] | effectively promote differentiation |  | significantly increased | 2
COc1ccc(-c2coc3cc(O)ccc3c2=O)cc1 [formononetin] | effectively promote differentiation | superior to those of the negative control |  | 
O=C(O)/C=C/c1cccc(O)c1 [hydroxycinnamic acid, m-coumaric acid] | effectively promote differentiation |  |  | 
O=C(O)c1cc(O)c(O)c(O)c1 [gallic acid] |  |  | significantly increased | 20
Cc1cc(S(=O)(=O)[O-])c2c(C)ccc(C(C)C)cc1-2.[Na+] [sodium guaiazulene sulfonate] | effectively promote differentiation |  |  | 
terpineol |  |  | significantly increased | 20
COC1=C(OC)C(=O)C(C/C=C(\C)CC/C=C(\C)CC/C=C(\C)CC/C=C(\C)CC/C=C(\C)CC/C=C(\C)CC/C=C(\C)CC/C=C(\C)CC/C=C(\C)CCC=C(C)C)=C(C)C1=O [ubiquinone, ubiquinone 10] | effectively promote differentiation |  |  | 
CC(C)=CCC[C@@H](C)[C@H]1CC[C@@]2(C)C3=C(CC[C@]12C)[C@@]1(C)CC[C@H](O)C(C)(C)[C@@H]1CC3 [lanosterol] |  |  | significantly increased | 2
O=c1c(O)c(-c2ccc(O)cc2)oc2cc(O)cc(O)c12 [kaempferol, reference compound] | non-differentiation |  |  | 
Cc1cc(O)c2c(c1)C(=O)c1cc(O)cc(O)c1C2=O [emodin] | effectively promote differentiation |  |  | 
Cc1cc2nc3c(=O)[nH]c(=O)nc-3n(C[C@H](O)[C@H](O)[C@H](O)COP(=O)([O-])O)c2cc1C.[Na+] [sodium riboflavin phosphate] |  |  | significantly increased | 20
laccaic acid | effectively promote differentiation |  |  | 
CC1=CC(=O)c2ccccc2C1=O [menadione] |  |  | significantly increased | 0.2
O=C(O)/C=C/c1ccc(O)c(O)c1 [caffeic acid] | effectively promote differentiation |  | significantly increased | 20
Cc1cc2nc3c(=O)[nH]c(=O)nc-3n(C[C@H](O)[C@H](O)[C@H](O)CO)c2cc1C [lactoflavin, riboflavin] |  |  | significantly increased | 20
CC(=O)CCc1ccc(O)cc1 [raspberry ketone] |  |  | significantly increased | 20
O=C(O)CCCC[C@@H]1CCSS1 (racemic) [thioctic acid] |  |  | significantly increased | 20
CC1(C)[C@@H](O)CC[C@]2(C)[C@H]3C(=O)C=C4[C@@H]5C[C@@](C)(C(=O)O)CC[C@]5(C)CC[C@@]4(C)[C@]3(C)CC[C@@H]12 [glycyrrhetinic acid] |  |  | significantly increased | 20
CCCCCCCCCCCCCCCC(N)=O [palmitamide] | effectively promote differentiation |  |  | 
